Molecules are shown by their SMILES.

The conditions of data set [1]: background statement; cited from earlier work.
The next data set relates to HT-29 cells. The data set can be described thus: MTS assay cell viability under SN-38 exposure, HT-29. Particulars: HT-29, 50 nmol/L SN-38, exposure for 72 hours. It is filed as cell-based, human. As to the method:
(§1) Two human colorectal cancer cell lines (HCT-116 and HT-29) employed were obtained from Kabushiki Kaisha Yakult Honsha.
(§2) Cell culturing was performed by means of a φ100 mm/Tissue Culture Dish (IWAKI) with a medium (Doulbecco's modified Eagle's Medium, 10% fetal bovine serum) at 37° C. under 5% CO2.
(§3) SN-38 powder was obtained from Kabushiki Kaisha Yakult Honsha. SN-38 was dissolved in DMSO, and, before use, the solution was diluted so that the DMSO concentration of each of the culture media employed in experiments was adjusted to 0.1% or less.
(§4) Cells of two colorectal cancer cell lines (HCT-116 and HT-29) were exposed to 50 nmol/L SN-38, and 24, 48, and 72 hours after drug exposure, cell viability was determined by means of an MTS assay (CellTiter96™AQueous One Solution Cell Proliferation Assay, Promega). Sensitivity evaluation of each cell line was performed in triplicate with three different passage numbers of cells, and the mean value and standard deviation were calculated.

In a further data set the test system is HCT-116 cells. The data set can be described thus: MTS assay cell viability under SN-38 exposure, HCT-116. It is filed as cell-based, human. Particulars: HCT-116, 50 nmol/L SN-38, exposure for 72 hours. As to the method:
as §1, §2, §3, §4

In a further data set the test system is WiDr. The data set can be described thus: MTS assay sensitivity (IC50) to SN-38, WiDr (Example 3). It is filed as cell-based, human. Particulars: 72 hours exposure, highest IC50 of eight lines. As to the method: (§5) Cancer cells of each cell line were exposed to SN-38 (0 nmol/L to 5 μmol/L) for 72 hours. After exposure to SN-38, cell viability was determined by means of an MTS assay (CellTiter96™AQueous One Solution Cell Proliferation Assay, Promega). IC50 (concentration of SN-38 at which 50% of cells in an SN-38-non-treated well are inhibited) was calculated for each cell line and employed as the sensitivity of the cell line to SN-38. Sensitivity determination of each cell line was performed in triplicate and twice.
(§6) The experiment procedure of Example 2 was repeated twice. The data obtained in the experiments (three times in total) were further analyzed. Peaks detected through CE-TOFMS in the tested cell samples were compared with the data of 278 standard samples whose m/z values and migration times were already known, whereby 146 metabolites were identified in any of the tested cell samples. The 146 metabolites were investigated through single regression analysis in terms of the correlation between the intracellular content (in eight human colorectal cancer cell lines) and Log[IC50] of each cell line.
(§7) The sensitivity of each of eight human colorectal cancer cell lines (HCT-116, HT-29, HCT-15, Lovo, LS174T, SW480, SW620, and WiDr) was evaluated by employing IC50 calculated through MTS assay as an index.

For the next data set, the system named is LS174T. The data set can be described thus: MTS assay sensitivity (IC50) to SN-38, LS174T (Example 3). It is filed as cell-based, human. Conditions: 72 hours exposure, lowest IC50 of eight lines. On the procedure: as §5, §6, §7

On to `CCc1c2c(nc3ccc(O[C@@H]4O[C@H](C(=O)O)[C@@H](O)[C@H](O)[C@H]4O)cc13)-c1cc3c(c(=O)n1C2)COC(=O)[C@]3(O)CC` [SN-38G, SN-38 glucuronate conjugate], for which, in data set [1], the cytotoxicity entry was “no cytotoxicity”.
For the compound `CCc1c2c(nc3ccc(O)cc13)-c1cc3c(c(=O)n1C2)COC(=O)[C@]3(O)CC` [SN-38, 7-ethyl-10-hydroxycamptothecin], the cell viability entry with HT-29 cells is “about 85%”; with HCT-116 cells, “about 35%”. Also, the 50% inhibitory concentration (IC50) in the data set on WiDr worked out at 63.3 ± 10.9 nM; in the data set on LS174T it was 0.71 ± 0.18 nM. In data set [1], the “anti-tumor activity relative to CPT-11” value is reported as “about 100 times to some thousand times that of CPT-11”.

Source of the values: patent publication US8809362B2, “Anticancer agent sensitivity-determining marker” (priority 2009, dated 2014).
